1 molecule from ChEMBL document CHEMBL3994607, “Synthesis of new sarsasapogenin derivatives with cytotoxicity and apoptosis-inducing activities in human breast cancer MCF-7 cells” (Eur J Med Chem, 2017) can be followed below.

The source made the active and inactive calls. No cut-off for these calls is given here.

Test [1] relates to MCF7. Nature of the test: Induction of apoptosis in human MCF7 cells assessed as early apoptotic cells at 3 uM after 48 hrs by annexin-V/propidium iodide staining-based flow cytometric method (reference value: 1.17%). The class given is functional.
In test [2] the test system is U-251. Nature of the test: Cytotoxicity against human U251 cells assessed as decrease in cell proliferation after 48 hrs by MTT colorimetric assay. The settings on record: U-251, 48 h. The class given is functional, cell-based.
Test [3] deals with MCF7. Nature of the test: Cell cycle arrest in human MCF7 cells assessed as accumulation at sub-G1 phase at 1.5 to 6 uM after 48 hrs by propidium iodide staining-based flow cytometric method. The class given is functional.
In test [4] the test system is MCF7. The test is described as follows: Induction of apoptosis in human MCF7 cells assessed as late apoptotic cells at 1.5 uM after 48 hrs by annexin-V/propidium iodide staining-based flow cytometric method (reference value: 1.43%). The class given is functional.
The subject of test [5] is MCF7. Nature of the test: Induction of apoptosis in human MCF7 cells assessed as upregulation of cleaved PARP level at 6 uM after 48 hrs by Western blot method relative to control. The class given is functional.
Test [6] relates to MCF7. Nature of the test: Induction of apoptosis in human MCF7 cells assessed as membrane blebbing at 1.5 to 6 uM after 48 hrs by inverted phase contrast microscopic method. The class given is functional, cell-based.
Test [7] deals with MCF7. Nature of the test: Cell cycle arrest in human MCF7 cells assessed as accumulation at G2/M phase at 1.5 to 6 uM after 48 hrs by propidium iodide staining-based flow cytometric method. The class given is functional.
The subject of test [8] is MCF7. The test is described as follows: Induction of apoptosis in human MCF7 cells assessed as cell shrinkage at 1.5 to 6 uM after 48 hrs by inverted phase contrast microscopic method. The class given is functional, cell-based.
Test [9] concerns MCF7. The test is described as follows: Induction of apoptosis in human MCF7 cells assessed as formation of apoptotic bodies at 1.5 to 6 uM after 48 hrs by inverted phase contrast microscopic method. The class given is functional, cell-based.
For test [10], the system named is MCF7. Nature of the test: Induction of apoptosis in human MCF7 cells assessed as late apoptotic cells at 3 uM after 48 hrs by annexin-V/propidium iodide staining-based flow cytometric method (reference value: 1.43%). The test is classed as functional.
Test [11] relates to HepG2. The test is described as follows: Cytotoxicity against human HepG2 cells assessed as decrease in cell proliferation after 48 hrs by MTT colorimetric assay. Conditions: HepG2, 48 h. The class given is functional, cell-based.
For test [12], the system named is A549. Nature of the test: Cytotoxicity against human A549 cells assessed as decrease in cell proliferation after 48 hrs by MTT colorimetric assay. The test is classed as functional, cell-based. Conditions: A549, 48 h.
The subject of test [13] is MCF7. The test is described as follows: Induction of apoptosis in human MCF7 cells assessed as upregulation of cleaved caspase 7 level at 6 uM after 48 hrs by Western blot method relative to control. The test is classed as functional.
Test [14] deals with Hep 3B2. Nature of the test: Cytotoxicity against human Hep3B cells assessed as decrease in cell proliferation after 48 hrs by MTT colorimetric assay. The test is classed as functional, cell-based.
Test [15] relates to MCF7. Nature of the test: Potency index, ratio of sarsasapogenin IC50 to test compound IC50 for human MCF7 cells. The class given is functional.
Test [16] deals with MCF7. Nature of the test: Induction of apoptosis in human MCF7 cells assessed as early apoptotic cells at 6 uM after 48 hrs by annexin-V/propidium iodide staining-based flow cytometric method (reference value: 1.17%). The class given is functional.
Test [17] has as its system Bcap37. Nature of the test: Cytotoxicity against human Bcap37 cells assessed as decrease in cell proliferation after 48 hrs by MTT colorimetric assay. The class given is functional, cell-based. The settings on record: Bcap37, 48 h.
The subject of test [18] is MCF7. Nature of the test: Induction of apoptosis in human MCF7 cells assessed as cell rounding at 1.5 to 6 uM after 48 hrs by inverted phase contrast microscopic method. The class given is functional, cell-based.
Test [19] concerns MCF7. The test is described as follows: Induction of apoptosis in human MCF7 cells assessed as late apoptotic cells at 6 uM after 48 hrs by annexin-V/propidium iodide staining-based flow cytometric method (reference value: […]). The class given is functional.
Test [20] deals with MCF7. Nature of the test: Induction of apoptosis in human MCF7 cells assessed as early apoptotic cells at 1.5 uM after 48 hrs by annexin-V/propidium iodide staining-based flow cytometric method (reference value: 1.17%). The class given is functional.
The subject of test [21] is MCF7. The test is described as follows: Cytotoxicity against human MCF7 cells assessed as decrease in cell proliferation after 48 hrs by MTT colorimetric assay. The class given is functional, cell-based.

Consider `COc1ccc(CO[C@H]2CC[C@@]3(C)[C@H](CC[C@@H]4[C@@H]3CC[C@]3(C)[C@H]5[C@H](C)[C@@H](CC[C@H](C)CN6CCNCC6)O[C@H]5C[C@@H]43)C2)cc1`, for which the Activity in [1] was found to be 4.51%; in test [4] it was 5.21%; in test [10] it was 5.8%; in test [16], 4.35%; in test [19] it was 7.27%; in test [20], 3.24%. The Activity result in test [21] was “Dose-dependent effect”; in test [21] (record 2), 2.95 µM. Moreover, the half-inhibitory concentration (IC50) in test [2] turned out to be 4.92 µM; in test [11] it was 4.35 µM; in test [12], 4.43 µM; in [14] it was 9.07 µM; in test [17], 8.83 µM. The outcome in test [3], in test [6], in [7], in test [8], in [9] and in [18] was Active. Also, the figures for the “fold change (FC)” value in test [5] and in test [13] were 13 and 16, respectively. The “Ratio IC50” value in [15] is reported as 16.7.
